A value given as a limit tells only on which side of the number the result lay.

The subject of one assay is E. coli ATCC 25922 (Strain ID 300960). Description: Antimicrobial susceptibility testing, broth microdilution (CLSI). The following applies: Escherichia coli, ATCC25922; Strain ID 300960 ESCCOL, wild-type negative control; Mueller-Hinton broth; read-out: minimum inhibition concentration (MIC). The assay is classed as cell-based. An excerpt: (§1) Carbapenem-resistant Klebsiella and E. coli were identified by broth microdilution as described by CLSI from the BD ID/AST microbial bank (1). Wild-type (Ampicillin sensitive) E. coli ATCC 25922 (Strain ID 300960) was used through out the experiments as a negative control. Three strains previously determined to contain KPC-1, KPC-2, and KPC-3 (Strain ID 301916=KPC-1, 301917=KPC-2, 301918=KPC-3) were used as positive controls (4). […] ESBL positive strains were identified using the CLSI recommended broth microdilution assay (2). Prior to any processing or extraction, all strains were streaked out on Trypticase Soy Agar (TSA) plates containing 5% Sheep red blood cells (BD Diagnostic Systems, Sparks, Md.) and grown at 35° C. overnight.
(§2) Antimicrobial susceptibility testing was performed using Mueller-Hinton broth (BD Diagnostic Systems, Sparks, Md.) as described by CLSI (1). Antimicrobial powders were acquired from the following companies; Ampicillin (Amp) and Cefotaxime (CTX) (Sigma Chemical Co., St. Louis, Mo.), Ceftazidime (CAZ) (Eli Lilly, Indianapolis, Ind.), Clavulanic acid (Smith-Kline, King of Prussia, Pa.), Imipenem (IPM) (Merck & Co., Rahway, N.J.).
(§3) The BD ID/AST Microbial Bank was screened for carbapenem-resistant Klebsiella and E. coli with broth microdilution as described by CLSI (2). Klebsiella spp. and E. coli were chosen because they are the primary reservoir species for the plasmid-borne KPC gene.
(§4) ESBL positive strains were identified using the CLSI recommended broth microdilution assay (2). Briefly, this broth microdilution assay has a two-fold dilution scheme between a defined range of the antimicrobial agent. For example, where the defined range of the antimicrobial agent is […], the two-fold dilution between wells is represented by 0.25, 0.5, 1, 2, 4, 8, and 16 μg/ml. To identify ESBL positive strains, growth is evaluated in wells containing the antimicrobial agent of interest at these various two-fold dilutions across the defined range either alone or in combination with Clavulanic acid in order to determine the MIC for the antimicrobial agent alone or in combination with Clavulanic acid. […] A wild-type E. coli Strain ID 300960 was also screened and used as a negative control for all of the real-time assays.
(In general: Broth dilution looks for growth in wells or tubes with falling amounts of substance.)
Take `CO/N=C(\C(=O)N[C@@H]1C(=O)N2C(C(=O)O)=C(COC(C)=O)CS[C@H]12)c1csc(N)n1` [CTX, Cefotaxime]: the MIC was at most 0.25 µg/mL.

In another assay the test system is E. coli Strain ID 301888. Described as above. The assay is classed as cell-based. The following applies: Escherichia coli; Strain ID 301888 ESCCOL, ESBL positive; Mueller-Hinton broth; read-out: minimum inhibition concentration (MIC).
Text: as §1, §2, §3, §4
`CO/N=C(\C(=O)N[C@@H]1C(=O)N2C(C(=O)O)=C(COC(C)=O)CS[C@H]12)c1csc(N)n1` [CTX, Cefotaxime]: the MIC stood at 32 µg/mL.

The subject of another assay is E. coli Strain ID 301892. Described as above. The assay is classed as cell-based. The following applies: Escherichia coli; Strain ID 301892 ESCCOL, ESBL positive; Mueller-Hinton broth; read-out: minimum inhibition concentration (MIC).
Text: as §1, §2, §3, §4
On to `CO/N=C(\C(=O)N[C@@H]1C(=O)N2C(C(=O)O)=C(COC(C)=O)CS[C@H]12)c1csc(N)n1` [CTX, Cefotaxime], for which the MIC amounted to 32 µg/mL.

A further assay relates to E. coli Strain ID 301894. The description is as above. Type of assay: cell-based. The following applies: Escherichia coli; Strain ID 301894 ESCCOL, ESBL positive; Mueller-Hinton broth; read-out: minimum inhibition concentration (MIC).
Text: as §1, §2, §3, §4
In the case of `CO/N=C(\C(=O)N[C@@H]1C(=O)N2C(C(=O)O)=C(COC(C)=O)CS[C@H]12)c1csc(N)n1` [CTX, Cefotaxime], the MIC was determined as 16 µg/mL.

Another assay deals with E. coli Strain ID 301896. Described as above. The assay is classed as cell-based. The settings on record: Escherichia coli; Strain ID 301896 ESCCOL, ESBL positive; Mueller-Hinton broth; read-out: minimum inhibition concentration (MIC).
Text: as §1, §2, §3, §4
Turning to `CO/N=C(\C(=O)N[C@@H]1C(=O)N2C(C(=O)O)=C(COC(C)=O)CS[C@H]12)c1csc(N)n1` [CTX, Cefotaxime], the MIC is 64 µg/mL.

The test system of another assay is E. coli Strain ID 301905. The assay is described as above. The assay is classed as cell-based. The settings on record: Escherichia coli; Strain ID 301905 ESCCOL; Mueller-Hinton broth; read-out: minimum inhibition concentration (MIC).
Text: as §1, §2, §3, §4
Take `CO/N=C(\C(=O)N[C@@H]1C(=O)N2C(C(=O)O)=C(COC(C)=O)CS[C@H]12)c1csc(N)n1` [CTX, Cefotaxime]: the MIC is above 64 µg/mL.

A further assay relates to E. coli Strain ID 301918 (KPC-3). The assay is described as above. The following applies: Escherichia coli; Strain ID 301918 ESCCOL, KPC-3 positive control; Mueller-Hinton broth; read-out: minimum inhibition concentration (MIC). Type of assay: cell-based.
Text: as §1, §2, §3, §4
As to `CO/N=C(\C(=O)N[C@@H]1C(=O)N2C(C(=O)O)=C(COC(C)=O)CS[C@H]12)c1csc(N)n1` [CTX, Cefotaxime], the MIC was above 64 µg/mL.

The subject of a further assay is E. coli Strain ID 301921. The assay is described as above. The assay is classed as cell-based. The following applies: Escherichia coli; Strain ID 301921 ESCCOL, ESBL positive; Mueller-Hinton broth; read-out: minimum inhibition concentration (MIC).
Text: as §1, §2, §3, §4
As for `CO/N=C(\C(=O)N[C@@H]1C(=O)N2C(C(=O)O)=C(COC(C)=O)CS[C@H]12)c1csc(N)n1` [CTX, Cefotaxime], the MIC was above 64 µg/mL.

Another assay deals with E. coli Strain ID 301922. The assay is described as above. Type of assay: cell-based. The settings on record: Escherichia coli; Strain ID 301922 ESCCOL, ESBL positive; Mueller-Hinton broth; read-out: minimum inhibition concentration (MIC).
Text: as §1, §2, §3, §4
`CO/N=C(\C(=O)N[C@@H]1C(=O)N2C(C(=O)O)=C(COC(C)=O)CS[C@H]12)c1csc(N)n1` [CTX, Cefotaxime]: the MIC is above 64 µg/mL.

Another assay relates to E. coli Strain ID 303364. The assay is described as above. Type of assay: cell-based. The following applies: Escherichia coli; Strain ID 303364 ESCCOL; Mueller-Hinton broth; read-out: minimum inhibition concentration (MIC).
Text: as §1, §2, §3, §4
In the case of `CO/N=C(\C(=O)N[C@@H]1C(=O)N2C(C(=O)O)=C(COC(C)=O)CS[C@H]12)c1csc(N)n1` [CTX, Cefotaxime], the MIC was 32 µg/mL.

The subject of the next assay is E. coli Strain ID 303365. Described as above. Type of assay: cell-based. The following applies: Escherichia coli; Strain ID 303365 ESCCOL, ESBL positive; Mueller-Hinton broth; read-out: minimum inhibition concentration (MIC).
Text: as §1, §2, §3, §4
Regarding `CO/N=C(\C(=O)N[C@@H]1C(=O)N2C(C(=O)O)=C(COC(C)=O)CS[C@H]12)c1csc(N)n1` [CTX, Cefotaxime], the MIC was above 64 µg/mL.

A further assay deals with E. coli Strain ID 303369. Described as above. The settings on record: Escherichia coli; Strain ID 303369 ESCCOL; Mueller-Hinton broth; read-out: minimum inhibition concentration (MIC). The assay is classed as cell-based.
Text: as §1, §2, §3, §4
With `CO/N=C(\C(=O)N[C@@H]1C(=O)N2C(C(=O)O)=C(COC(C)=O)CS[C@H]12)c1csc(N)n1` [CTX, Cefotaxime], the MIC came to 32 µg/mL.

A further assay concerns Klebsiella oxytoca Strain ID 300967. The description is as above. The assay is classed as cell-based. The following applies: Strain ID 300967 KLEOXY, Mueller-Hinton broth, read-out: minimum inhibition concentration (MIC).
Text: as §1, §2, §3, §4
Consider `CO/N=C(\C(=O)N[C@@H]1C(=O)N2C(C(=O)O)=C(COC(C)=O)CS[C@H]12)c1csc(N)n1` [CTX, Cefotaxime], for which the MIC is above 64 µg/mL.

A further assay has as its system Klebsiella oxytoca Strain ID 303990. Described as above. The settings on record: Strain ID 303990 KLEOXY, Mueller-Hinton broth, read-out: minimum inhibition concentration (MIC). Type of assay: cell-based.
Text: as §1, §2, §3, §4
With `CO/N=C(\C(=O)N[C@@H]1C(=O)N2C(C(=O)O)=C(COC(C)=O)CS[C@H]12)c1csc(N)n1` [CTX, Cefotaxime], the MIC was above 64 µg/mL.

Another assay concerns Klebsiella pneumoniae Strain ID 300996. The assay is described as above. The following applies: Strain ID 300996 KLEPNEP, ESBL positive, Mueller-Hinton broth, read-out: minimum inhibition concentration (MIC). The assay is classed as cell-based.
Text: as §1, §2, §3, §4
With `CO/N=C(\C(=O)N[C@@H]1C(=O)N2C(C(=O)O)=C(COC(C)=O)CS[C@H]12)c1csc(N)n1` [CTX, Cefotaxime], the MIC was 2 µg/mL.

For the next assay, the system named is Klebsiella pneumoniae Strain ID 301008. The description is as above. Type of assay: cell-based. The following applies: Strain ID 301008 KLEPNEP, Mueller-Hinton broth, read-out: minimum inhibition concentration (MIC).
Text: as §1, §2, §3, §4
Regarding `CO/N=C(\C(=O)N[C@@H]1C(=O)N2C(C(=O)O)=C(COC(C)=O)CS[C@H]12)c1csc(N)n1` [CTX, Cefotaxime], the MIC was at most 0.25 µg/mL.

The test system of another assay is Klebsiella pneumoniae Strain ID 301891. The assay is described as above. The assay is classed as cell-based. The settings on record: Strain ID 301891 KLEPNEP, Mueller-Hinton broth, read-out: minimum inhibition concentration (MIC).
Text: as §1, §2, §3, §4
For the compound `CO/N=C(\C(=O)N[C@@H]1C(=O)N2C(C(=O)O)=C(COC(C)=O)CS[C@H]12)c1csc(N)n1` [CTX, Cefotaxime], the MIC came to 4 µg/mL.

In a further assay the test system is Klebsiella pneumoniae Strain ID 301898. The assay is described as above. Type of assay: cell-based. The settings on record: Strain ID 301898 KLEPNEP, Mueller-Hinton broth, read-out: minimum inhibition concentration (MIC).
Text: as §1, §2, §3, §4
In the case of `CO/N=C(\C(=O)N[C@@H]1C(=O)N2C(C(=O)O)=C(COC(C)=O)CS[C@H]12)c1csc(N)n1` [CTX, Cefotaxime], the MIC is above 64 µg/mL.

A further assay relates to Klebsiella pneumoniae Strain ID 301899. The description is as above. Type of assay: cell-based. The settings on record: Strain ID 301899 KLEPNEP, Mueller-Hinton broth, read-out: minimum inhibition concentration (MIC).
Text: as §1, §2, §3, §4
As for `CO/N=C(\C(=O)N[C@@H]1C(=O)N2C(C(=O)O)=C(COC(C)=O)CS[C@H]12)c1csc(N)n1` [CTX, Cefotaxime], the MIC was above 64 µg/mL.

The test system of a further assay is Klebsiella pneumoniae Strain ID 301916 (KPC-1). The assay is described as above. The settings on record: Strain ID 301916 KLEPNEP, KPC-1 positive control, Mueller-Hinton broth, read-out: minimum inhibition concentration (MIC). The assay is classed as cell-based.
Text: as §1, §2, §3, §4
Consider `CO/N=C(\C(=O)N[C@@H]1C(=O)N2C(C(=O)O)=C(COC(C)=O)CS[C@H]12)c1csc(N)n1` [CTX, Cefotaxime], for which the MIC is above 64 µg/mL.

The test system of another assay is Klebsiella pneumoniae Strain ID 301917 (KPC-2). The assay is described as above. The following applies: Strain ID 301917 KLEPNEP, KPC-2 positive control, ESBL positive, Mueller-Hinton broth, read-out: minimum inhibition concentration (MIC). The assay is classed as cell-based.
Text: as §1, §2, §3, §4
Consider `CO/N=C(\C(=O)N[C@@H]1C(=O)N2C(C(=O)O)=C(COC(C)=O)CS[C@H]12)c1csc(N)n1` [CTX, Cefotaxime], for which the MIC amounted to 32 µg/mL.

Another assay concerns Klebsiella pneumoniae Strain ID 301919. Described as above. The settings on record: Strain ID 301919 KLEPNEP, ESBL positive, Mueller-Hinton broth, read-out: minimum inhibition concentration (MIC). Type of assay: cell-based.
Text: as §1, §2, §3, §4
As to `CO/N=C(\C(=O)N[C@@H]1C(=O)N2C(C(=O)O)=C(COC(C)=O)CS[C@H]12)c1csc(N)n1` [CTX, Cefotaxime], the MIC was found to be 16 µg/mL.

A further assay has as its system Klebsiella pneumoniae Strain ID 301920. Described as above. Type of assay: cell-based. The settings on record: Strain ID 301920 KLEPNEP, ESBL positive, Mueller-Hinton broth, read-out: minimum inhibition concentration (MIC).
Text: as §1, §2, §3, §4
In the case of `CO/N=C(\C(=O)N[C@@H]1C(=O)N2C(C(=O)O)=C(COC(C)=O)CS[C@H]12)c1csc(N)n1` [CTX, Cefotaxime], the MIC is above 64 µg/mL.

The test system of a further assay is Klebsiella pneumoniae Strain ID 303375. The description is as above. The settings on record: Strain ID 303375 KLEPNEP, Mueller-Hinton broth, read-out: minimum inhibition concentration (MIC). Type of assay: cell-based.
Text: as §1, §2, §3, §4
In the case of `CO/N=C(\C(=O)N[C@@H]1C(=O)N2C(C(=O)O)=C(COC(C)=O)CS[C@H]12)c1csc(N)n1` [CTX, Cefotaxime], the MIC is 32 µg/mL.

Source of the values: patent publication US9085806B2, “Methods for treating infection involving identification of a carbapanemase gene” (priority 2007, dated 2015).
